Consider `Cc1nc2cc(N)ccc2[nH]1`, for which the pKa (basic group) came to 6.95.
The compound `Oc1ccc2c(c1)CCCC2` gave a pKa (acidic group) of 10.3.
Still for that read-out and setting: the same measure for `O=C(O)c1c(O)cccc1[N+](=O)[O-]`: 2.24.
In turn, `Nc1ncnc2c1cnn2CCO` displayed a pKa (basic group) of 4.29.
Still for that read-out and setting: the same measure for `CCCCCNCc1ccccc1O`: 8.65.
Take `O=C1NC(=O)c2cc([N+](=O)[O-])ccc21`: the pKa (acidic group) is 8.68.
As for `COc1cc2c(cc1OC)[C@]13CCN4CC5=CCO[C@@H]6CC(=O)N2[C@@H]1[C@@H]6[C@@H]5C[C@@H]43`, under “basic group”, the pKa was 5.86.
On the same count and under the same terms, the same measure for `NC(=O)Cc1cccnc1`: 4.72.
Still for that read-out and setting: the same measure for `N=C(Sc1ccccc1)c1ccccc1`: 4.48; for `O=C([O-])CN(CC(=O)[O-])Cc1nc2ccccc2[nH]1`: 6.87; for `c1ccc(-c2[nH]c3ccccc3[nH+]2)nc1`: -1.59.
As to `Nc1ncnc2[nH]cnc12`, the pKa reads like this: (acidic group) 9.86; (basic group) 4.26.
Turning to `Cc1ccc(SC2CC(=O)N2)cc1` (stereo unspecified), the pKa (acidic group) amounted to 13.4.
`[O-]c1ccc(O)cc1Cl` had a pKa (acidic group) of 10.8.
In turn, `NNCCO` gave a pKa (basic group) of 7.12.
Still for that read-out and setting: the same measure for `O=C([O-])/C=C\c1c[nH]cn1`: 6.7; for `N=C1C=C(N)C(=O)c2ccccc21`: 8.87.
Regarding `CCCC[P+](CCCC)(CCCC)C1c2ccccc2-c2ccccc21`, the pKa (acidic group) was 10.5.
Same read-out and setting: the same measure for `CC#CC#CC=C=C[C@@H](O)CCC(=O)O`: 4.9.
Where the note is “basic group”, `CN/C=N/c1cccc(-c2csc(N=C(N)N)n2)c1` yielded a pKa of 8.29.
`CCN(CC)Cc1cc(C)ccc1O`: the pKa reads like this: (acidic group) 10.8; (basic group) 8.94.
As to `NCCNC(=O)c1ccccc1`, where the note is “acidic group”, the pKa came to 9.13.
`Nc1ccc2[nH]cnc2c1` came in with a pKa (basic group) of 6.11.
In turn, `NNC(=O)C(F)F` came in with a pKa (acidic group) of 9.66.
Under “basic group”, `COc1ccc(/N=C/N(C)C)cc1` had a pKa of 9.35.
With `C/C(=N\O)NO`, the pKa amounted to 10.8 (acidic group) and 4.95 (basic group).
Turning to `COc1ccc(N)cc1C(=O)N[C@@H]1C[C@H]2CC[C@@H](C1)N2Cc1ccccc1`, where the note is “basic group”, the pKa is 8.86.
With `C=C(CCCC)C(=O)O`, the pKa (acidic group) came out at 4.8.
For the setting “basic group”, `c1cnc2c(c1)CCCC2` showed a pKa of 6.6.
The same measure, in the same setting: the same measure for `N/C(=[NH+]\O)c1ccccc1N`: 2.2.
On to `O=C(O)c1ccccc1/N=C/C=C/c1ccccc1`, for which the pKa (acidic group) was determined as 6.12.
Still for that read-out and setting: the same measure for `C/C(=C\C=C\C(C)C(=O)O)[C@H]1C[NH2+][C@H](C(=O)O)[C@H]1CC(=O)O` (stereo partly specified): 2.1.
In the case of `CCC(C)NCC(C)C` (stereo unspecified), for the setting “basic group”, the pKa worked out at 10.8.
In the case of `O=C(Cc1ccccc1)NO`, the pKa (acidic group) is 9.26.
`CN(C)[C@H]1CCCC[C@@H]1O` registered a pKa (basic group) of 10.4.
`O=C1CCCC(=O)N1` yielded a pKa (acidic group) of 11.4.
On the same count and under the same terms, the same measure for `CC(=O)[C@@H]1C[C@@H]1C(=O)O`: 4.19.
Turning to `CN(C)C[C@H]1[C@@H]2CC[C@@](C)([C@H]1N)C2(C)C`, the pKa (basic group) came out at 9.84.
Consider `C[C@@H]1CCN2CC[C@H](O)[C@H]12`, for which the pKa (basic group) came to 10.9.
Under “acidic group”, `C[N+](C)(C)c1ccc(O)cc1` showed a pKa of 8.25.
With `c1ncc2[nH]cnc2n1`, the pKa stood at 8.92 (acidic group) and 2.45 (basic group).
With `O=C(O)c1ccccc1CO`, for the setting “acidic group”, the pKa was found to be 3.84.
Still for that read-out and setting: the same measure for `COC(=O)c1ccccc1S`: 6.3.
Same read-out and setting: the same measure for `Nc1ccc(S(=O)(=O)Nc2nccs2)c(Cl)c1`: 6.95.
Still for that read-out and setting: the same measure for `O=C(O)C1C2CCC1CC2` (stereo unspecified): 4.85.
With `CCc1nc2cc3ccccc3cc2[nH]1`, the pKa (acidic group) was 12.9 and the pKa (basic group) was found to be 6.14.
In turn, `CCCCSCCN` registered a pKa (basic group) of 8.37.
`Oc1ccc(Cl)cc1CN1CCOCC1` had a pKa (acidic group) of 9.85 and a pKa (basic group) of 6.78.
`NCCCC(=O)[O-]` showed a pKa (basic group) of 10.5.
Still for that read-out and setting: the same measure for `O=C([O-])c1cccc2cccnc12`: 6.99.
The same measure, in the same setting: the same measure for `CC(C)C[C@H]([NH3+])C(=O)N[C@@H](Cc1c[nH]cn1)C(=O)[O-]`: 6.69; for `Nc1ccc([NH3+])c(N)c1`: 3.69.
Still for that read-out and setting: the same measure for `N[C@@H](Cc1c[nH]c2ccccc12)C(=O)[O-]`: 9.31; for `CN[C@H]1C[C@]1(C)NC`: 9.05.
As to `CN=C(N(C)C)N(C)C`, where the note is “basic group”, the pKa came to 13.8.
On the same count and under the same terms, the same measure for `NCCc1cnc[nH]1`: 9.4.
On the same count and under the same terms, the same measure for `CCCCNc1ccnc2cccc([N+](=O)[O-])c12`: 7.18.
On the same count and under the same terms, the same measure for `CCN(CC)S(=O)(=O)c1ccc(N)cc1`: 1.75; for `CC(CCN(C)C)NN` (stereo unspecified): 9.23.
As to `CC(C=C(c1cccs1)c1cccs1)N1CCCCC1C` (stereo unspecified), the pKa (basic group) stood at 7.46.
For the setting “acidic group”, `CC(C)c1cccc(C(=O)O)c1` displayed a pKa of 4.27.
The same measure, in the same setting: the same measure for `C=CC[NH+](C)CCCNC(=O)/C=N/O`: 8.48.
Still for that read-out and setting: the same measure for `C/C(=N\O)C(=O)CO`: 9.16.
Regarding `CCN(CC)CCC[NH+](CC)CC`, under “basic group”, the pKa was determined as 8.2.
With `NS(=O)(=O)c1cccc(Cl)c1`, the pKa (acidic group) worked out at 9.04.

Values taken from the pKa sets of Baltruschat and Czodrowski (2020).
